Experimental data as given in patent publication US11279733B2, “Peptide antibiotics” (priority 2017, dated 2022).
In brackets after ≈: the same amount, converted by molar mass. Read-outs that look alike come from different tables or passages of the source. Positions of bridges follow the written chain, without caps; N, C: chain ends. Non-standard residues stand in square brackets, D forms with d. Residues, ends and D or L forms follow the SMILES beside them. *: point of attachment. Decanoyl(3R-OH) = CCCCCCC[C@@H](O)CC(=O)*; dPhe(4-NH2) = Nc1ccc(C[C@@H](N)C(=O)O)cc1; d3Pal = N[C@H](Cc1cccnc1)C(=O)O; dDab = NCC[C@@H](N)C(=O)O; Dab = NCC[C@H](N)C(=O)O; Dap = NC[C@H](N)C(=O)O

Tests used:
[1] = system: E. coli ATCC 25922; conditions: ATCC 25922
Outline: (§1)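 Mid-log cultures grown in Mueller Hinton broth at 37° C were tested by 2-fold broth microdilution at 5×10^5 CFU/mL final. Compounds were dissolved in water and tested over a final range of 32 to 0.015 μg/mL.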

[2] = system: P. aeruginosa ATCC 27853; conditions: ATCC 27853
Outline: as §1

[3] = system: S. aureus ATCC 25923, MSSA; conditions: ATCC 25923
Outline: as §1

[4] = system: A. baumannii ATCC 19606; conditions: ATCC 19606
Outline: as §1

[5] = system: P. aeruginosa GN_105, PmxR; conditions: GN 105, PmxR
Outline: as §1

[6] = system: A. baumannii GN_093 PmxR; conditions: GN 093 PmxR
Outline: as §1

[7] = system: K. pneumoniae ATCC 13883; conditions: ATCC 13883
Outline: as §1

[8] = system: K. pneumoniae GN_106, PmxR; conditions: GN 106, PmxR
Outline: as §1

[9] = system: P. aeruginosa GN_043, PmxR
Outline: as §1

[10] = system: K. pneumoniae ATCC 700603, MDR; conditions: ATCC 700603
Outline: as §1

[11] = system: K. pneumoniae GN_102 PmxR; conditions: GN 102 PmxR
Outline: as §1

[12] = system: K. pneumoniae ATCC BAA-2146, NDM-1 pos; conditions: ATCC BAA-2146
Outline: as §1

[13] = in vitro; conditions: human
Experimental: Cytotoxicity of the synthesised peptides was evaluated by comparison with commercially available colistin (polymyxin E), polymyxin B (Sigma chemical Co., St. Louis, Mo., U.S.A.) and synthetic octapeptin C4 by conducting lactate dehydrogenase (LDH) assay. CC50 values calculated based on curve fitting of dose dependent inhibition of cell growth represented the cytotoxicity of the peptide. Human kidney 2 (HK2) cells were seeded as 2000 cells per well in a 384 well cell culture plate in a final volume of 20 μL in DMEM/F12 medium (Invitrogen #11330057), in which 10% of FBS was added. Cells were incubated for 24 hours at 37° C., 5% CO2 to allow cells to attach to the plates. Similar conditions were employed for HEK293 and HepG2 cytotoxicity assays.
Cytotoxicity to HEK293 and HepG2 cells was determined using the resazurin assay (McMillian, M. K.; Li, L.; Parker, J. B.; Patel, L.; Zhong, Z.; Gunnett, J. W.; Powers, W. J.; Johnson, M. D. An improved resazurin-based cytotoxicity assay for hepatic cells; Cell Biol. Toxicol. 2002, 18, 157-173; O'Brien, J.; Wilson, I.; Orton, T.; Pognan, F. Investigation of the Alamar Blue (resazurin) fluorescent dye for the assessment of mammalian cell cytotoxicity. Eur. J. Biochem. 2000, 267, 5421-5426). In brief, HEK293 and HepG2 cells were seeded at 4000 cells/well in black-wall, clear-bottom 384-well plates (Corning, Australia) and incubated for 24 h at 37° C., 5% CO2. Compounds were then added into each well. After 24 h incubation, 5 μM resazurin was added per well and incubated at 37° C. for 2 h. Fluorescence intensity was then read using a Polarstar Omega with excitation/emission 560/590. The data was then analyzed using GraphPad Prism 6 software. CC50 values were determined using GraphPad Prism 6 software (Inc. La Jolla, Calif.).

| SMILES | MIC P. aeruginosa GN_105, PmxR [5] [µg/mL] | MIC A. baumannii GN_093 PmxR [6] [µg/mL] | MIC K. pneumoniae GN_106, PmxR [8] [µg/mL] | MIC K. pneumoniae GN_102 PmxR [11] [µg/mL] | CC50 at 24 h [13] [µM] | MIC E. coli ATCC 25922 [1] [µg/mL] | MIC P. aeruginosa ATCC 27853 [2] [µg/mL] | MIC S. aureus ATCC 25923, MSSA [3] [µg/mL] | MIC A. baumannii ATCC 19606 [4] [µg/mL] | MIC K. pneumoniae ATCC 13883 [7] [µg/mL] | MIC P. aeruginosa GN_043, PmxR ([9]; P. aeruginosa GN_043, PmxR) [µg/mL] | MIC K. pneumoniae ATCC 700603, MDR [10] [µg/mL] | MIC K. pneumoniae ATCC BAA-2146, NDM-1 pos [12] [µg/mL] | also measured |
| --- | --- | --- | --- | --- | --- | --- | --- | --- | --- | --- | --- | --- | --- | --- |
| CCCCCCC[C@@H](O)CC(=O)N[C@H](CCCCN)C(=O)N[C@H]1CCNC(=O)[C@H](CC(C)C)NC(=O)[C@H](CCN)NC(=O)[C@H](CCN)NC(=O)[C@H](CC(C)C)NC(=O)[C@@H](Cc2ccccc2)NC(=O)[C@H](CCN)NC1=O [compound 5381, 3(R)OH-nC9CO-D-Lys-cyc[L-Dab-L-Dab-D-Phe-L-Leu-L-Dab-L-Dab-L-Leu]] ({Decanoyl(3R-OH)}-[dK][Dab][Dab][dF]L[Dab][Dab]L; lactam 2-C) | 4 (≈ 3.73 µM) | 8 (≈ 7.46 µM) | 4 (≈ 3.73 µM) | 4 (≈ 3.73 µM) | > 300 | – | – | – | – | – | – | – | – | MIC, E. coli ATCC 25922 [1]: 8 µg/mL (≈ 7.46 µM); MIC, P. aeruginosa ATCC 27853 [2]: 4 µg/mL (≈ 3.73 µM); MIC, S. aureus ATCC 25923, MSSA [3]: >32 µg/mL; MIC, A. baumannii ATCC 19606 [4]: 16 µg/mL (≈ 14.9 µM); MIC, K. pneumoniae ATCC 13883 [7]: 8 µg/mL (≈ 7.46 µM); MIC P. aeruginosa GN_043, PmxR ([9]; Table 6, polymyxin-resistant): 2 µg/mL (≈ 1.86 µM); MIC, K. pneumoniae ATCC 700603, MDR [10]: 4 µg/mL (≈ 3.73 µM); MIC, K. pneumoniae ATCC BAA-2146, NDM-1 pos [12]: 8 µg/mL (≈ 7.46 µM) |
| CCCCCCC[C@@H](O)CC(=O)N[C@H](CCN)C(=O)N[C@H]1CCCCNC(=O)[C@H](CC(C)C)NC(=O)[C@H](CCN)NC(=O)[C@H](CCN)NC(=O)[C@H](CC(C)C)NC(=O)[C@@H](Cc2ccccc2)NC(=O)[C@H](CCN)NC1=O [compound 5382, 3(R)OH-nC9CO-D-Dab-cyc[L-Lys-L-Dab-D-Phe-L-Leu-L-Dab-L-Dab-L-Leu]] ({Decanoyl(3R-OH)}-[dDab]K[Dab][dF]L[Dab][Dab]L; lactam 2-C) | 2 (≈ 1.86 µM) | >32 | >32 | >32 | > 300 | 4 (≈ 3.73 µM) | 4 (≈ 3.73 µM) | 32 (≈ 29.8 µM) | 32 (≈ 29.8 µM) | 8 (≈ 7.46 µM) | 2 (≈ 1.86 µM) | 8 (≈ 7.46 µM) | 8 (≈ 7.46 µM) | – |
| CCCCCCC[C@@H](O)CC(=O)N[C@@H](CN)C(=O)N[C@H]1CCNC(=O)[C@H](CC(C)C)NC(=O)[C@H](CCN)NC(=O)[C@H](CCN)NC(=O)[C@H](CC(C)C)NC(=O)[C@@H](Cc2ccccc2)NC(=O)[C@H](CCN)NC1=O [compound 5561, 3(R)OH-nC9CO-L-Dap-cyc[L-Dab-L-Dab-D-Phe-L-Leu-L-Dab-L-Dab-L-Leu]] ({Decanoyl(3R-OH)}-[Dap][Dab][Dab][dF]L[Dab][Dab]L; lactam 2-C) | 2 (≈ 1.94 µM) | 8 (≈ 7.76 µM) | 4 (≈ 3.88 µM) | 4 (≈ 3.88 µM) | > 300 | – | – | – | – | – | – | – | – | MIC, E. coli ATCC 25922 [1]: 4 µg/mL (≈ 3.88 µM); MIC, P. aeruginosa ATCC 27853 [2]: 2 µg/mL (≈ 1.94 µM); MIC, S. aureus ATCC 25923, MSSA [3]: 16 µg/mL (≈ 15.5 µM); MIC, A. baumannii ATCC 19606 [4]: 16 µg/mL (≈ 15.5 µM); MIC, K. pneumoniae ATCC 13883 [7]: 4 µg/mL (≈ 3.88 µM); MIC P. aeruginosa GN_043, PmxR ([9]; Table 6, polymyxin-resistant): 2 µg/mL (≈ 1.94 µM); MIC, K. pneumoniae ATCC 700603, MDR [10]: 8 µg/mL (≈ 7.76 µM); MIC, K. pneumoniae ATCC BAA-2146, NDM-1 pos [12]: 8 µg/mL (≈ 7.76 µM) |
| CCCCCCC[C@@H](O)CC(=O)N[C@@H](CCN)C(=O)N[C@H]1CCNC(=O)[C@H](CC(C)C)NC(=O)[C@H](CN)NC(=O)[C@H](CCN)NC(=O)[C@H](CC(C)C)NC(=O)[C@@H](Cc2ccccc2)NC(=O)[C@H](CCN)NC1=O [compound 5564, 3(R)OH-nC9CO-L-Dab-cyc[L-Dab-L-Dab-D-Phe-L-Leu-L-Dab-L-Dap-L-Leu]] ({Decanoyl(3R-OH)}-[Dab][Dab][Dab][dF]L[Dab][Dap]L; lactam 2-C) | 32 (≈ 31.1 µM) | 32 (≈ 31.1 µM) | 8 (≈ 7.76 µM) | 4 (≈ 3.88 µM) | > 300 | 8 (≈ 7.76 µM) | 2 (≈ 1.94 µM) | 32 (≈ 31.1 µM) | >32 | 8 (≈ 7.76 µM) | – | 16 (≈ 15.5 µM) | 8 (≈ 7.76 µM) | MIC P. aeruginosa GN_043, PmxR ([9]; polymyxin-resistant): 2 µg/mL (≈ 1.94 µM) |
| CCCCCCC[C@@H](O)CC(=O)N[C@H](Cc1ccc(N)cc1)C(=O)N[C@H]1CCNC(=O)[C@H](CC(C)C)NC(=O)[C@H](CCN)NC(=O)[C@H](CCN)NC(=O)[C@H](Cc2ccccc2)NC(=O)[C@@H](CC(C)C)NC(=O)[C@H](CCN)NC1=O [compound 6429, 3(R)OH-nC9CO-D-4NH2Phe-cyc[L-Dab-L-Dab-D-Leu-L-Phe-L-Dab-L-Dab-L-Leu]] ({Decanoyl(3R-OH)}-[dPhe(4-NH2)][Dab][Dab][dL]F[Dab][Dab]L; lactam 2-C) | 32 (≈ 28.9 µM) | >32 | 8 (≈ 7.23 µM) | 8 (≈ 7.23 µM) | > 300 | 16 (≈ 14.5 µM) | 32 (≈ 28.9 µM) | >32 | 32 (≈ 28.9 µM) | 16 (≈ 14.5 µM) | 16 (≈ 14.5 µM) | 8 (≈ 7.23 µM) | 16 (≈ 14.5 µM) | – |
| CCCCCCC[C@@H](O)CC(=O)N[C@H](Cc1cccnc1)C(=O)N[C@H]1CCNC(=O)[C@H](CC(C)C)NC(=O)[C@H](CCN)NC(=O)[C@H](CCN)NC(=O)[C@H](Cc2ccccc2)NC(=O)[C@@H](CC(C)C)NC(=O)[C@H](CCN)NC1=O [compound 6430, 3(R)OH-nC9CO-D-3PyPhe-cyc[L-Dab-L-Dab-D-Leu-L-Phe-L-Dab-L-Dab-L-Leu]] ({Decanoyl(3R-OH)}-[d3Pal][Dab][Dab][dL]F[Dab][Dab]L; lactam 2-C) | 32 (≈ 29.3 µM) | >32 | 4 (≈ 3.66 µM) | 8 (≈ 7.32 µM) | > 300 | 16 (≈ 14.6 µM) | 32 (≈ 29.3 µM) | >32 | 32 (≈ 29.3 µM) | 16 (≈ 14.6 µM) | 16 (≈ 14.6 µM) | 8 (≈ 7.32 µM) | 16 (≈ 14.6 µM) | – |
| CCCCCCC[C@@H](O)CC(=O)NCC(=O)N[C@H]1CCNC(=O)[C@H](CC(C)C)NC(=O)[C@H](CCN)NC(=O)[C@H](CCN)NC(=O)[C@H](Cc2ccccc2)NC(=O)[C@@H](CC(C)C)NC(=O)[C@H](CCN)NC1=O [compound 6431, 3(R)OH-nC9CO-Gly-cyc[L-Dab-L-Dab-D-Leu-L-Phe-L-Dab-L-Dab-L-Leu]] ({Decanoyl(3R-OH)}-G[Dab][Dab][dL]F[Dab][Dab]L; lactam 2-C) | 4 (≈ 3.99 µM) | 32 (≈ 32 µM) | 4 (≈ 3.99 µM) | 2 (≈ 2 µM) | > 300 | 16 (≈ 16 µM) | 8 (≈ 7.99 µM) | >32 | 32 (≈ 32 µM) | 8 (≈ 7.99 µM) | 8 (≈ 7.99 µM) | 8 (≈ 7.99 µM) | 8 (≈ 7.99 µM) | – |
